Consider one molecule from US11504395B2, “Oral pyrophosphate for use in reducing tissue calcification” (Stichting Het Nederlands Kanker Instituut-Antoni van …, priority 2016, dated 2022).

The subject of one experiment is Abcc6−/− mice. The method, then:
The calcium content of heart tissue was determined.
(§1) All animals were housed in approved animal facilities at the Research Center for Natural Sciences, Hungarian Academy of Sciences. Mice were kept under routine laboratory conditions with 12 hour light-dark cycle with ad libitum access to water and chow. The RCNS, Hungarian Academy of Sciences Institutional Animal Care and Use Committees approved this study. Experiments have been conducted according to national guidelines. Cryo injury was performed and tissue calcium content was determined as described by Brampton, et al. ((2014) Am J Pathol. 184, 159-70). Calcification of the vibrissae was studied by histochemistry following the method described Klement, et al. ((2005) Mol Cell Biol. 25, 8299-310. The number of calcified vibrissae (hair capsules) was counted independently and the onset of tiptoe walking phenotype was determined by two investigators in a blinded fashion.
Abcc6^−/− mice faithfully recapitulate human PXE, with calcifying lesions found in skin, eyes and blood vessels. A drawback of the Abcc6^−/− mice is the relatively late onset of the first lesions, making this model less convenient for rapid screening of new treatments.

The subject of experiment [1] is Tiptoe walking (ttw) mice. The method, then: as §1
Tiptoe walking (ttw) mice have an inactivating mutation in Enpp1 and represent a model for GACI.

Read-outs that look alike come from different tables or passages of the source.

Consider `O.O.O.O.O.O.O.O.O.O.O=P([O-])([O-])OP(=O)([O-])[O-].[Na+].[Na+].[Na+].[Na+]` [PPi, Sodium pyrophosphate tetrabasic decahydrate], for which, in the experiment on Abcc6−/− mice (IP delivery, 6 mg PPi/kg body weight for 7 days, Abcc6−/− mice, data not shown), the “cardiac calcification (ICC) induced by cryo-injury” value is listed as “reduced”. Moreover, in the experiment with Abcc6−/− mice (PPi in drinking water, dose-dependent inhibition, FIG. 1), the “PPi concentration giving maximal inhibition of ICC” value is 10 mM. Besides, the “calcification of the dermal sheet surrounding the vibrissae” value is given as “greatly reduced” in experiment [1] (10 mM oral PPi during pregnancy and lactation and continued in pups after weaning, ttw mice, FIG. 3); “no significant impact” in experiment [1] (PPi provided during lactation, ttw mice); “no different from the control-treated group” in experiment [1] (ttw pups treated with PPi only after weaning).
